The record followed here is ChEMBL document CHEMBL1151086, “Sulfobetaine zwitterionic inhibitors of squalene synthase” (Bioorg Med Chem Lett, 1996).

The target of the first assay is T1, Squalene synthase (Rattus norvegicus, UniProt Q02769).
T1 sequence (Q02769 whole entry): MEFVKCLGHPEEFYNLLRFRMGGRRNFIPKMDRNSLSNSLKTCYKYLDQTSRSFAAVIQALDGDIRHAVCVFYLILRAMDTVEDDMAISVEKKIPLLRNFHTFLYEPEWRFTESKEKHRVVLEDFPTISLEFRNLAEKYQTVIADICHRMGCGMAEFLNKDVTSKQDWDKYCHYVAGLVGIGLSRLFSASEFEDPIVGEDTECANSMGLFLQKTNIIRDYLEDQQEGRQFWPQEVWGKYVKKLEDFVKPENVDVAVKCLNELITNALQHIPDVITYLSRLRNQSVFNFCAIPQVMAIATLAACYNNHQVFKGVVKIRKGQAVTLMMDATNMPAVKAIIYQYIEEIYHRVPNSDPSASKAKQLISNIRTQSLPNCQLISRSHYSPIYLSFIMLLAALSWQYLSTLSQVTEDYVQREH
Description: Compound was evaluated for its inhibitory activity against rat hepatic squalene synthase at a concentration of 1000 uM; NI = No inhibition.
A word on the IC50: it is the concentration at which inhibition is half-maximal. For `C[N+](C)(CCCCS(=O)(=O)[O-])Cc1ccccc1`, the half-maximal inhibitory concentration (IC50) entry is on record as “Not Active”.

On to `C[N+](C)(CCCCS(=O)(=O)[O-])CCc1ccccc1`, for which the IC50 entry was “Not Active”.

In the next assay the target is T1, Squalene synthase. Description: Inhibitory activity against rat hepatic squalene synthase.
Take `CC(C)=CCC/C(C)=C/CC/C(C)=C/C[N+](C)(C)CCCCS(=O)(=O)[O-]`: 15 µM corresponded to half-maximal inhibition (IC50).

As to `C[N+](C)(CCCCCCc1ccccc1)CCCCS(=O)(=O)[O-]`, it took 100 µM to reach half-maximal inhibition (IC50).

As for `C[N+](C)(CCCCCCCCc1ccccc1)CCCCS(=O)(=O)[O-]`, the IC50 turned out to be 8 µM.

`C[N+](C)(CCCCCc1ccc(-c2ccccc2)cc1)CCCCS(=O)(=O)[O-]` gave an IC50 of 5 µM.

For `C[N+](C)(CCCCCCCCCCc1ccccc1)CCCCS(=O)(=O)[O-]`, the IC50 came out at 6 µM.

`C[N+](C)(CCCCCCCCCc1ccccc1)CCCCS(=O)(=O)[O-]` returned an IC50 of 2 µM.

With `C[N+](C)(CCCCCCc1ccc(-c2ccccc2)cc1)CCCCS(=O)(=O)[O-]`, the IC50 is 60 µM.

Take `C[N+](C)(CCCCc1ccc(-c2ccccc2)cc1)CCCCS(=O)(=O)[O-]`: the IC50 was found to be 25 µM.
